These results are taken from patent US9782379B2, “Use of protectin DX for the stimulation of muscular IL-6 secretion” (Universite Laval, priority 2013, dated 2017).

For one experiment, the system named is C2C12 myotubes. Briefly: IL-6 expression and release and AMPK phosphorylation in cultured C2C12 myotubes. In kind it is cell-based. Particulars: 100 nM of each lipid mediator vs vehicle. The procedure:
C2C12 myoblasts were maintained in DMEM containing 10% FBS. Differentiation to myotubes was initiated by addition of DMEM containing 2% horse serum. The experiment was conducted 5 days after the addition of the differentiation media. Immediately prior to the commencement of experiments fresh media was added to the cells. Then vehicle or PDX (10, 100, and 1000 nM) was added to the appropriate wells. 30 and 120 minutes after the addition of PDX media was collected and frozen for IL-6 quantification and cells were washed in ice cold PBS. For extraction of mRNA cells were then lysed and scraped in 300 μl of RLT buffer (QIAGEN). For examination of AMPK activity cells were lysed and scraped in 200 μl of ice cold lysis buffer containing 50 mM HEPES pH7.5, 150 mM NaCl, 1 mM EGTA, 20 mM b-glycerophosphate, 1% NP40, 10 mM NaF, 2 mM Na3VO4, 1× protease inhibitor cocktail (Sigma).
Snap frozen gastrocnemius muscle and liver from mice were pulverized in liquid nitrogen then lysed overnight at 4° C. in the lysis buffer described for the C2C12 myotube experiments. Immunoblotting of myotube, macrophage, liver and muscle lysates was then performed as previously described^5. Briefly, 50 ug of protein was loaded onto a 7.5% acrylamide gel, subjected to SDS-PAGE then transferred onto nitrocellulose membranes. Membranes were then blocked and probed with the appropriate antibodies. Antibodies for p-Akt ser473, p-JNK thr183/tyr185, JNK, p-AMPK thr172, AMPK, p-STAT-3 ser727 and STAT-3 were obtained from Cell Signaling Technology (MA, USA). Antibodies for total Akt and iNOS were from Santa Cruz Biotechnology (CA, USA) and BD Transduction Laboratories™ (Canada) respectively.
RNA was extracted from C2C12 myotubes using an RNeasy® mini kit from QIAGEN. RNA from homogenized liver tissue was extracted using an RNeasy® fibrous tissue mini kit from QIAGEN. RNA was then reverse transcribed to cDNA using the high-capacity cDNA reverse transcription kit from applied biosystems. Real-time PCR for Ppargc1, Pck1, G6Pc, and GAPDH was then performed using Taqman assay on demand probes and primers from Applied Biosystems in a CFX96 real-time system from BIO-RAD. The relative expression of genes of interest was then determined by normalization to the housekeeping gene GAPDH using the comparative CT method for relative gene expression^30.
Chemokines and cytokines were quantified in macrophage media, or mouse plasma using the MILLIPLEX™ MAP mouse cytokine/chemokine kit (Millipore Corporation, MA, USA). Nitrite accumulation in media was determined by Greiss assay as previously described^25. Plasma insulin levels were assessed by RIA (Linco, MI, USA). FFA were measured using an enzymatic colorimetric assay (Wako Chemicals, VA, USA). Skeletal muscle and liver IL-6 were quantified using the mouse IL-6 ELISA kit from R&D systems. Total plasma adiponectin was determined using the ELISA from ALPCO.

For the next experiment, the system named is T37i brown adipocytes. Briefly: IL-6 release from cultured brown adipocytes. The settings on record: norepinephrine 1 μM as adrenergic stimulus. Format: cell-based. An excerpt:
Since brown adipose tissue was recently shown to regulate glucose homeostasis via secretion of IL-6^20 we also examined whether PDX might raise circulating IL-6 by stimulating brown fat.

As to `CCCCCC(O)/C=C/C=C\C=C\[C@@H](O)C/C=C\CCCC(=O)O` (stereo partly drawn) [8(S),17(S)DiHETE, 8S,15S-dihydroxy-5Z,9E,11Z,13E-eicosatetraenoic acid, reference compound], the “IL-6 release from muscle cells” value in the experiment with C2C12 myotubes is given as “not present”.

`CC/C=C\CC(O)/C=C/C=C\C=C\C=C\C(O)[C@@H](O)C/C=C\CCC(=O)O` (stereo partly drawn) [RvD1, 7S,8R,17S-trihydroxy-4Z,9E,11E,13Z,15E,19Z-docosahexaenoic acid, reference compound]: the “IL-6 release from muscle cells” value in the experiment with C2C12 myotubes is reported as “not present”.

With `NC[C@H](O)c1ccc(O)c(O)c1` [norepinephrine, reference compound], in the experiment on T37i brown adipocytes, the “release of IL-6” value is on record as “released IL-6”.

For `CC/C=C\C[C@H](O)\C=C/C=C/C=C/[C@H](O)C/C=C\C/C=C\CCC(=O)O` [PD1, 10R,17S-dihydroxy-docosa-4Z,7Z,11E,13E,15Z,19Z-hexaenoic acid, reference compound], the “IL-6 release from muscle cells” value in the experiment with C2C12 myotubes is given as “not present”.
